Experimental data as given in patent US9750805B2, “Calcium flux agonists and methods therefor” (Nant Holdings IP, LLC, priority 2012, dated 2017).

Columns and labels:
[1] = test system: methicillin-sensitive S. aureus (MSSA); experiment: Direct antibiotic activity in liquid culture assay, MSSA; format: cell-based
Method: Consistent with these and previous results regarding their inherent antibiotic activity against S. aureus, the inventors confirmed the direct antibiotic activity of both ionophores for direct antibiotic activity on methicillin-sensitive S. aureus (MSSA).
To determine the antibiotic sensitivity of S. aureus, cultures were grown overnight in tryptic soy broth (Cellgro). The resulting cultures were used to inoculate new cultures to ensure log phase growth prior to the start of the experiment. Once the bacteria had reached log phase the bacteria was diluted to the appropriate OD600˜0.05 and transferred to a 24-well plate. Compounds of interest were added and plates were incubated in a shaking incubator at 37° C. Aliquots were removed at various time points and their respective OD600 was measured using a BioTek Synergy2 microplate reader (BioTek, Winooski, Vt.). For wells whose turbidity was affected by the addition of the compounds of interest, aliquots were removed and plated on tryptic soy agar (Cellgro) and incubated overnight in a 37° C. incubated and counted the following day. Thus, it should be appreciated that the calcium flux agonists are effective in antimicrobial treatments via an indirect effect, most likely due to the enhanced production of IL-8 and increased NF-κB-driven transcription.

[2] = test system: TLR (TLR2, TLR4, TLR5, TLR9) and NOD (NOD1, NOD2) family members; experiment: IL-8 production with TLR and NOD ligands plus suboptimal calcium flux agonist (FIGS. 3A-3E); format: cell-based, human; conditions: suboptimal doses: 20 nM thapsigargin, 316 nM A23187, 1 μM ionomycin, 10 μM cyclopiazonic acid, 31.6 μM DBHQ
Method: To investigate if that observation was also true for other pattern recognition receptors, and especially for TLR and NOD receptors and other ligands, the inventors tested numerous TLR and NOD receptors and various ligands.
The doses used in this experiment were 20 nM for thapsigargin, 316 nM for A23187, 1 μM for ionomycin, 10 μM for cyclopiazonic acid, and 31.6 μM for DBHQ.
Thus, a clear pattern of adjuvant activity of calcium flux agonists on the immune response, and especially on IL-8 production and NF-κB signaling is evident where the immune response is associated with a TLR- or NOD-mediated event.

[3] = test system: TLR2 ligand response of THP-1 promonocytic leukemia cell line; experiment: IL-8 release with TLR2 ligand plus suboptimal calcium flux agonist (FIG. 2); format: cell-based, human; conditions: THP-1 cells, suboptimal doses of ionophore; beyond cumulative individual responses (synergy)
Method: (§1) For example, human promonocytic THP-1 cells were incubated in the presence or absence of a suboptimal dose of the TLR2 ligand Pam2CSK4 and compared to similarly treated cells which also received suboptimal doses of ionophore (here: A23187 and ionomycin). […] In another example, NF-κB THP-1 cells (a THP-1-derived transfectant line harboring an NF-κB-driven luciferase expression cassette) were cultivated in the presence or absence of a suboptimal dose of the TLR2 ligand Pam2CSK4 and compared to similarly treated cells that also received suboptimal doses of various SERCA inhibitors.
Here, the ionophores A23187 and ionomycin, as well as the SERCA inhibitor thapsigargin synergize with the TLR2 ligand (Pam2CYS) in the activation of cytokine release from the human THP-1 promonocytic leukemia cell line. It should be especially noted that while the TLR2 ligand alone provided for about 5 ng/ml IL-8 response, addition of a suboptimal dose of the calcium flux agonists (e.g. 20 nM for thapsigargin, 316 nM for A23187, and 1 μM for ionomycin) produced more than 10-fold quantities of IL-8 production in the cells.

[4] = test system: κB-LUC THP-1 (NF-κB Luciferase Reporter); experiment: NF-κB activation, luciferase reporter, dose response without added ligand; format: cell-based, human; conditions: κB-LUC THP-1, 24 hours, increasing concentrations, no added ligand; FIGS. 1A-1C
Text: The inventors performed several studies to identify the effect of calcium flux agonists on various components of an immune response, and particularly on the effect of calcium flux agonists on IL-8 production and activation of NF-κB signaling. […] The dose response is observed over relatively large windows for ionophores (e.g., A23187 and ionomycin) and over at least two orders of magnitude for SERCA inhibitors (e.g., thapsigargin).
More specifically, the dose response of ionophores on NF-κB and IL-8 is shown in FIGS. 1A-1B using a monocyte-derived cell line to treatment and A23187 and ionomycin in the absence of externally added TLR or NOD ligands. […] FIG. 1C depicts the dose response to thapsigargin on NF-κB and IL-8.
NF-κB activation: A titration of thapsigargin (A.G. Scientific), ionomycin, and the calcium ionophore A23187 was added to a 96-well plate (Thermo Matrix) seeded with 150,000 THP-1 κB-LUC THP-1's (THP-1 cells containing the stable integration of a NF-κB Luciferase Reporter) grown in RPMI 1640 (Cellgro, Herndon VA) supplemented with 10% FBS (Thermo HyClone) and 1% penicillin-streptomycin-fungizone (Thermo HyClone). 24 hours after addition, 25 uL of Bright-Glo Luciferase Assay System (Promega, Madison Wis.) was added to each well and analyzed for luciferase activity using Perkin Elmer TopCount NXT (Perkin Elmer, Waltham Mass.).

S. aureus = experiment: Killing of intracellular S. aureus by thapsigargin-treated differentiated THP-1 cells (FIG. 11); format: cell-based, human; conditions: 1 day with 20 nM thapsigargin vs vehicle, MOI of 10
Method: Briefly, a logarithmically dividing S. aureus was pelleted (2000×g for 10 min) and washed three times with Hank's Buffered Salt Solution (Cellgro). Concurrently, 2 day differentiated THP-1 cells (using 1 uM retinoic acid and 1 uM cholecalciferaol, Sigma-Aldrich) followed by 1 day with 20 nM thapsigargin or vehicle were collected and washed in Hank's Buffered Salt Solution. Differentiated cells were supplemented with 10% human serum (Innovative Research) and chilled on ice for 30 minutes. After the 30 minutes, S. aureus (MOI of 10) was added on ice for an additional 20 minutes to synchronize binding. Tubes were then incubated for 20 minutes at 37° C. After 20 minutes, 10 U/mL of lysostaphin (Sigma-Aldrich) was added to eliminate non-internalized bacteria. At the desired time points (20, 30, 60 minutes) 20 uL aliquots were removed and diluted into 10 mL of water. The dilution tubes were vortex and allowed to sit at room temp for 10 minutes to ensure proper lysis of the primary cells. After 10 minutes, the dilution tubes were centrifuged for 10 minutes at 2000×g and the remaining S. aureus was concentrated 20 fold and plated in triplicate on tryptic soy agar (Cellgro) and incubated overnight at 37° C. prior to colony enumeration.

NF-κB THP-1 cells = experiment: NF-κB luciferase reporter synergy with TLR2 ligand and effect of Ca2+ modulating compounds (FIG. 4); format: cell-based, human; conditions: NF-κB THP-1 cells, suboptimal doses of SERCA inhibitors; beyond cumulative individual responses (synergy)
Method: as §1
The inventors further investigated if the nature of calcium flux was of significance as increased intracellular calcium may have different origins. To that effect, the inventors used various calcium signaling modulators to investigate the nature of the calcium flux and contribution. As can be readily taken from the data shown, extracellular calcium flux into the cell was critical for synergistic amplification of calcium signaling. More specifically, FIG. 4 illustrates the effects of different Ca^2+ modulating compounds on synergy with respect to NF-κB activation.

[5] = target: sarco/endoplasmic reticulum Ca2+ ATPases (SERCA); conditions: cited from earlier work

Structure (SMILES)	direct antibiotic activity against MSSA [1]	effect on IL-8 production with TLR and NOD ligands [2]	amount of IL-8 produced with suboptimal TLR2 ligand Pam2CSK4 [3]	activation of NF-κB signaling [4]	antimicrobial activity of treated cells against internalized S. aureus (S. aureus)	amount of luciferase produced with suboptimal TLR2 ligand Pam2CSK4 (NF-κB THP-1 cells)	affinity constant of Thapsigargin:SERCA binding [5]
CNc1ccc2oc(C[C@H]3O[C@@]4(CC[C@H]3C)O[C@H]([C@H](C)C(=O)c3ccc[nH]3)[C@H](C)C[C@H]4C)nc2c1C(=O)O [A23187, calcimycin]	the more active compound	synergistic effect	significantly increased	significant increases			
C[C@H](CCC(=O)O)C[C@H](C)C[C@H](C)C(=O)/C=C(\O)[C@H](C)C[C@H](C)C/C=C/[C@@H](C)[C@@H](O)[C@@H](C)[C@@H](O)C[C@@H]1CC[C@@](C)([C@H]2CC[C@@](C)([C@@H](C)O)O2)O1 [ionomycin]		synergistic effect	significantly increased	significant increases			
C/C=C(/C)C(=O)O[C@H]1C(C)=C2[C@H]([C@@H]1OC(=O)CCCCCCC)[C@@](C)(OC(C)=O)C[C@H](OC(=O)CCC)[C@@]1(O)[C@H]2OC(=O)[C@@]1(C)O [thapsigargin]		synergistic effect		significant increases	greater antimicrobial activity	significantly increased	low picomolar range
